Counter-ions that a name gives are not always drawn. Blank lines part the entries; values can stand above or below the compound they belong to.
Columns and labels:
[1] = tested on: liver cancer cell line HepG2; assay: CellTiter-Glo tumor cell proliferation, HepG2; assay type: cell-based, human
Description: (§1) The effect of compounds on tumor cell proliferation was detected by CellTiter-Glo method. Human melanoma cell line A375, non-small cell lung cancer cell line A549, human lung adenocarcinoma cell line H1299, colorectal cancer cell line HCT116, liver cancer cell line HepG2 and gastric cancer cell line MGC80-3 were cultured in vitro. The cells were collected after growing to the logarithmic growth phase, centrifuged at 1000 rpm for 5 min, and suspended in an appropriate amount of medium after discarding the supernatant, and the cell concentration was adjusted to 2×10^4/mL. The cell suspension was inoculated onto the 384-well cell culture plate, with 50 μL per well. After being cultured in a cell incubator (37° C., 5% CO2) for 24 h, 5 μL of drug diluted by the cell culture medium was added into each well for the treatment group. Each drug was provided in triplicate. After 72 h incubation in the incubator, 20 μL of CellTiter-Glo was added into each well, and the relative luminescence unit (RLU) was measured with Multimode Microplate Reader Varioskan Flash (Thermo Scientific, USA) after placed at 37° C. for 20 min, and compared with the RLU of the control group. SigmaPlot 10.0 software was used to calculate the inhibition rate and IC50 value.

[2] = tested on: human liver cancer Bel7404; assay: Antitumor activity in vivo, Bel7404 transplanted in nude mice; parameters: species or system male BALB/c athymic nude mice; settings: 15 mg/kg
Description: In the test, the Bel7404 models of human liver cancer transplanted into 6-week-old male BALB/c athymic nude mice (purchased from Shanghai Slac Laboratory Animal Co., Ltd.) with body weight of 18-20 g were used to study the anti-tumor effect of compound 30. The dose of compound 30 was 50 mg/kg (30H group), 25 mg/kg (30 M group) and 12.5 mg/kg (30 L group), respectively, and was injected intravenously twice a week for 5 times in total; at the same time, 5-FU was used as the control drug, which was injected intraperitoneally twice a week for 7 times in total (5 mice/group for the compound 30 administration group, 5 mice in 5 FU administration group; 8 mice were used as the mock group). The long diameter a (mm) and the vertical short diameter b (mm) of the tumor were measured twice a week with a digital electronic caliper. The tumor volume calculation formula was TV=ab^2/2; and the relative tumor volume calculation formula was RTV=Vt/Vo, wherein Vo was the tumor volume measured on the first day of administration (d1), and Vt was the tumor volume at each measurement. On the 22nd day of administration (d22), the animals were sacrificed and weighed. The tumor mass was dissected and weighed. The tumor inhibition rate (tumor inhibitory rate, %) was calculated according to the following formula: […]

[3] = tested on: human lung adenocarcinoma cell line H1299; assay: CellTiter-Glo tumor cell proliferation, H1299; assay type: cell-based; settings: NCI-H1299, 72 h
Description: as §1

[4] = tested on: colorectal cancer cell line HCT116; assay: CellTiter-Glo tumor cell proliferation, HCT116; assay type: cell-based, human; settings: Homo sapiens, HCT-116, 72 h
Description: as §1

[5] = tested on: Human melanoma cell line A375; assay: CellTiter-Glo tumor cell proliferation, A375; assay type: cell-based; settings: Homo sapiens, A-375, 72 h
Description: as §1

[6] = tested on: non-small cell lung cancer cell line A549; assay: CellTiter-Glo tumor cell proliferation, A549; assay type: cell-based, human; settings: Homo sapiens, A549, 72 h, read-out: Inhibition rate A549 (%)
Description: as §1

Compound: ((1R)-1-(2-(3-(3-(2-(S,S-2,6-dimethylmorpholino)ethoxy)phenyl)-5-phenyl-1H-pyrazol-1-yl)acetamido)-3-methylbutyl)boronic acid hydrochloride [Compound 37]
- IC50 ([1]; 72 h): 60 nM

Compound: CC(C)C[C@H](NC(=O)Cn1nc(-c2cccc(OCCCCN3CCN(c4ccccc4)CC3)c2)cc1-c1ccccc1)B(O)O [Compound 41, (R)-(3-methyl-1-(2-(5-phenyl-3-(3-(4-(4-phenylpiperazin-1-yl)butoxy)phenyl)-1H-pyrazol-1-yl)acetamido)butyl)boronic acid dihydrochloride]
- IC50 ([1]; Homo sapiens, HepG2, 72 h): 123 nM

Compound: O=c1[nH]cc(F)c(=O)[nH]1 [Compound 5FU, 5-FU, reference compound]
- RTV (d22) ([2]; ip × 7): 2.78 ± 0.37
- Animal weight (g) (After tumor removal) ([2]; ip × 7, d22): 23.14 ± 0.58 g
- Inhibition rate % ([2]; ip × 7, d22): 53.77%

Compound: CC(C)C[C@H](NC(=O)Cn1nc(-c2cccc(OCCCN3CCN(c4ccccc4)CC3)c2)cc1-c1ccccc1)B(O)O [Compound 40, (R)-(3-methyl-1-(2-(5-phenyl-3-(3-(3-(4-phenylpiperazin-1-yl)propoxy)phenyl)-1H-pyrazol-1-yl)acetamido)butyl)boronic acid dihydrochloride]
- IC50 ([1]; Homo sapiens, HepG2, 72 h): 101 nM

Compound: ((1R)-1-(2-(3-(3-(2-(S,R-2,6-dimethylmorpholino)ethoxy)phenyl)-5-phenyl-1H-pyrazol-1-yl)acetamido)-3-methylbutyl)boronic acid hydrochloride [Compound 38]
- IC50 ([1]; 72 h): 126 nM

More lines, main results first:

- IC50 ([1]; 72 h): 121 nM
Compound: (R)-(3-methyl-1-(2-(5-phenyl-3-(3-((5-(4-phenylpiperazin-1-yl)pentyl)oxy)phenyl)-1H-pyrazol-1-acyl)acetamido)butyl)boronic acid dihydrochloride [Compound 42]

- IC50 [3]: 7190 nM
- IC50 ([4]; CellTiter-Glo): 6530 nM
- IC50 ([5]; CellTiter-Glo): 8910 nM
Compound: CC(C)C[C@H](NC(=O)Cn1nc(-c2ccccc2OS(=O)(=O)c2cccc(C(F)(F)F)c2)cc1-c1ccccc1)B(O)O [Compound 1, (R)-(3-methyl-1-(2-(5-phenyl-3-(2-(((3-(trifluoromethyl)phenyl)sulfonyl)oxy)phenyl)-1H-pyrazol-1-yl)acetamido)butyl)boronic acid]
- inhibition at 1 µM ([4]; 1 μM, read-out: Inhibition rate HCT116 (%)): 13.1%
- inhibition at 10 µM ([4]; 10 μM, read-out: Inhibition rate HCT116 (%)): 98%
- inhibition at 1 µM ([5]; 1 μM, read-out: Inhibition rate A375 (%)): 5.8%
- inhibition at 10 µM ([5]; 10 μM, read-out: Inhibition rate A375 (%)): 98.4%
- inhibition at 1 µM ([6]; 1 μM): 11.9%
- inhibition at 10 µM ([6]; 10 μM): 66.4%

— US12473305B2, “Pyrazole boronic acid compound, pharmaceutical composition containing same, and uses thereof” (BEIJING SONGRUN PHARMACEUTICAL TECHNOLOGY CO., LTD., priority 2020, dated 2025)
